The results in this text go back to US20180194762A1 (Pharmacyclics LLC, priority 2017, published 2018).

Holding throughout (assay type): biochemical
One assay deals with T1, TEC (Homo sapiens, UniProt P42680).
T1 sequence (P42680 1-631): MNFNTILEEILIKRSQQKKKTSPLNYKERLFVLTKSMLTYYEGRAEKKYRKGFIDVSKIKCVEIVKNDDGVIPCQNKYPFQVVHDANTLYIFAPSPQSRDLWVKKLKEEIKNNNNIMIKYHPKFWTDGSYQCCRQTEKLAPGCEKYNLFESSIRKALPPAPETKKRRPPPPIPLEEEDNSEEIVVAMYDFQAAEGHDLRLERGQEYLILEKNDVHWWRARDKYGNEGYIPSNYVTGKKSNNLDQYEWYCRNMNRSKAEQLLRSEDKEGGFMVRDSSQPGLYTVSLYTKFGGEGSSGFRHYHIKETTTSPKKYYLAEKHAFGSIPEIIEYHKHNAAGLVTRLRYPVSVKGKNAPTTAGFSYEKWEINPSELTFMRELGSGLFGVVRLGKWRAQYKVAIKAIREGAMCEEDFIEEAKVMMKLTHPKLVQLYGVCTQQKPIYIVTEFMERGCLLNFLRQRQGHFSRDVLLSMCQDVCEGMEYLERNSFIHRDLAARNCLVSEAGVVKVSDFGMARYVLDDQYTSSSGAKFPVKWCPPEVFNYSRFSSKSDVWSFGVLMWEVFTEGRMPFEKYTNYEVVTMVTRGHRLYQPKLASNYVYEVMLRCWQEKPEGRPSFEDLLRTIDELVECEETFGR
Kind of assay: Inhibition of a panel of kinases (in vitro HotSpot kinase assay, 33P-ATP, 1 μM ATP). The following applies: for IC50: HotSpot kinase assay, 1 μM ATP; for TEC/Btk: ratio of TEC IC50 to Btk IC50 (selectivity). The gist of the method: (§1)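 Purified kinase enzymes were incubated with an appropriate substrate and 33P-labelled ATP at 1 μM ATP. Inhibition was measured radiometrically from incorporation of the 33P label.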

For a further assay, the target named is T2, panel of kinases (Homo sapiens, UniProt P51813).
T2 sequence (P51813 1-675): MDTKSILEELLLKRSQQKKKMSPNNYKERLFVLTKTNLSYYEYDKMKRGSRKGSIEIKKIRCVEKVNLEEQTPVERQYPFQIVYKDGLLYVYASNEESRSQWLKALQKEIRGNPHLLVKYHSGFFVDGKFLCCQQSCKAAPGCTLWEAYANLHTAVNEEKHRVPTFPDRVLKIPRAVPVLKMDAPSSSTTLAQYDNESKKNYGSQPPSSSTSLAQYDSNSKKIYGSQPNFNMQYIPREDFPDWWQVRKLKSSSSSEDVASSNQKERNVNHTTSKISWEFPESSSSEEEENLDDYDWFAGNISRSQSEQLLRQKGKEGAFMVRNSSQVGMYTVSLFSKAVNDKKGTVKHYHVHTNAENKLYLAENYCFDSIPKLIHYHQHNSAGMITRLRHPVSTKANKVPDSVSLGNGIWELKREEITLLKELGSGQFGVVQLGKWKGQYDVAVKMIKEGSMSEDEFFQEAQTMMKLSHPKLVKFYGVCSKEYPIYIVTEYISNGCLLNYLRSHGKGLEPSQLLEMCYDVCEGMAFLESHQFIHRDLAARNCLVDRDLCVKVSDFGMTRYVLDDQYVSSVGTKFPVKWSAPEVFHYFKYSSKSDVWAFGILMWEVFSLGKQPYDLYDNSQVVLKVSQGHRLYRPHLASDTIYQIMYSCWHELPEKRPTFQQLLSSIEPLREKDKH
Kind of assay: Inhibition of a panel of kinases (in vitro HotSpot kinase assay, 33P-ATP, 1 μM ATP), other kinases. To be noted: BMX wild-type, read-out: BMX-WT IC50. Put shortly: as §1

The next assay deals with T3, Btk (Homo sapiens, UniProt Q06187).
T3 construct: purified from insect cells as a full-length construct containing a N-terminal 6X-His tag; His6 (N); made in house; host or cells: insect cells (Method C)
T3 sequence (Q06187 whole entry): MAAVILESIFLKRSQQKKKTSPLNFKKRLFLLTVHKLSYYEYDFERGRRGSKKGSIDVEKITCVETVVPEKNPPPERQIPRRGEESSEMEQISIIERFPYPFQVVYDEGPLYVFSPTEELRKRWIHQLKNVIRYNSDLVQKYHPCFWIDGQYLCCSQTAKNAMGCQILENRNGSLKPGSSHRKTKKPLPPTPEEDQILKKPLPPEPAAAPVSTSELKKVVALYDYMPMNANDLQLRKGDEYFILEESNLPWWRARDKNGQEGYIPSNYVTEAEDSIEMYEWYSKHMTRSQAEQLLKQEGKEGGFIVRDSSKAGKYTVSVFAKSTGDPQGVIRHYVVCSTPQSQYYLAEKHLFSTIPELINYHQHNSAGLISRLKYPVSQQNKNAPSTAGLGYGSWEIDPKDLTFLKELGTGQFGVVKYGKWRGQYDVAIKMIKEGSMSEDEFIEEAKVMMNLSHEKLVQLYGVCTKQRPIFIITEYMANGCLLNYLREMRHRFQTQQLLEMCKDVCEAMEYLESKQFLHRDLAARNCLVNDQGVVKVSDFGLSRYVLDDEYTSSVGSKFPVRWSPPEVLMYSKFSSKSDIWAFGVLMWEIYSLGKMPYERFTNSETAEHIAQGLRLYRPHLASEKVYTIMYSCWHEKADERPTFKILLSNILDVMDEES
Put plainly: Btk in vitro inhibitory activity (one of Method A TR-FRET, Method B electrophoretic mobility shift, Method C radiometric filter binding). The gist of the method: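 Method A: TR-FRET with 0.5 nM Btk at [ATP]=Km, EDTA-quenched, 665/615 nm ratio; Ki(app) converted to IC50. Method B: 1 nM full-length His6 human BTK, 1 μM FAM peptide, pH 7.5, mobility-shift product/sum ratio, 12-point 4-parameter fit. Method C: radiometric filter binding, 8 nM His-tagged BTK, 0.2 mg/mL poly-Glu-Tyr.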

The mark [1] stands for this setting: wild-type Btk, read-out: Btk-WT IC50.
Where [2] appears, read: method is one of A, B or C, not stated which, read-out: IC50 values against Btk.

Where two headings read alike, the source gives them in different places.

Turning to `C[C@H]1NCCC[C@H]1Nc1n[nH]c2nccc(-c3ccc(CNC(=O)c4noc(C(C)(C)C)n4)c(F)c3)c12` [Example 55], the IC50 against TEC was greater than 10000 nM; on panel of kinases, greater than 10000 nM; at Btk (setting [1]), 29.2 nM. Also, the TEC/Btk at TEC is reported as greater than 100.
In the case of `C[C@@H]1[C@H](Nc2n[nH]c3nccc(-c4ccc(CNC(=O)c5noc(C(C)(C)C)n5)c(F)c4)c23)CCCN1C(=O)N(C)C` [Example 125, (2R,3R)-3-{[4-(4-{[(5-tert-butyl-1,2,4-oxadiaozl-3-yl) formamido]methyl}-3-fluorophenyl)-1H-pyrazolo[3,4-b]pyridin-3-yl]amino}-N,N,2-trimethylpiperidine-1-carboxamide], the IC50 on TEC was greater than 10000 nM; on panel of kinases it was greater than 10000 nM; at Btk (setting [1]), 89.3 nM. In addition, the TEC/Btk at TEC is greater than 100.
With `C=CC(=O)N1CC[C@@H](Nc2n[nH]c3nccc(-c4cc(F)cc(CNC(=O)c5ccc(C(C)(C)C)cc5)c4)c23)C1` [Example 89, 4-tert-butyl-N-{[3-fluoro-5-(3-{[(3R)-1-(prop-2-enoyl)pyrrolidin-3-yl]amino}-1H-pyrazolo[3,4-b]pyridin-4-yl)phenyl]methyl}benzamide], the IC50 is 3280 nM at TEC, 510 nM at panel of kinases and greater than 10000 nM on Btk (setting [1]). The TEC/Btk on TEC is greater than 100.
For `C=CC(=O)N1CC[C@@H](Nc2n[nH]c3nccc(-c4ccc(CNC(=O)c5cc(-c6ccccc6)on5)c(F)c4)c23)C1` [Example 345, N-{[2-fluoro-4-(3-{[(3R)-1-(prop-2-enoyl)pyrrolidin-3-yl]amino}-1H-pyrazolo[3,4-b]pyridin-4-yl)phenyl]methyl}-5-phenyl-1,2-oxazole-3-carboxamide], the IC50 against TEC was 253 nM; on panel of kinases it was 55.7 nM; at Btk (setting [1]) it was 30.6 nM.
In the case of `C=CC(=O)N1CC[C@@H](Nc2n[nH]c3nccc(-c4ccc(CNC(=O)c5ccc6scnc6c5)c(F)c4)c23)C1` [Example 362, N-{[2-fluoro-4-(3-{[(3R)-1-(prop-2-enoyl)pyrrolidin-3-yl]amino}-1H-pyrazolo[3,4-b]pyridin-4-yl)phenyl]methyl}-1,3-benzothiazole-5-carboxamide], the IC50 on TEC is 73.3 nM; on panel of kinases, 19 nM; at Btk (setting [1]), 0.727 nM.
As to `CC(C)(C)n1ccc(C(=O)NCc2ccc(-c3ccnc4[nH]nc(N[C@@H]5CCNC5)c34)cc2F)n1` [Example 64, 1-tert-butyl-N-{[2-fluoro-4-(3-{[(3R)-pyrrolidin-3-yl]amino}-1H-pyrazolo[3,4-b]pyridin-4-yl)phenyl]methyl}-1H-pyrazole-3-carboxamide], the IC50 against TEC was greater than 10000 nM; at panel of kinases, greater than 10000 nM; on Btk (setting [1]) it was 167 nM. The TEC/Btk at TEC was greater than 100.
As for `C[C@H]1CC[C@@H](Nc2n[nH]c3nccc(-c4ccc(CNC(=O)c5nc(C(C)(C)C)no5)c(F)c4)c23)CN1C(=O)N(C)C` [Example 391, (2S,5R)-5-{[4-(4-{[(3-tert-butyl-1,2,4-oxadiazole-5-carbonyl)amino]methyl}-3-fluorophenyl)-1H-pyrazolo[3,4-b]pyridin-3-yl]amino}-N,N,2-trimethylpiperidine-1-carboxamide], the figures for the IC50 against TEC, on panel of kinases and on Btk (setting [1]) were 776 nM, 1350 nM and 0.237 nM, respectively.
In the case of `C=CC(=O)N1CCC(Cc2n[nH]c3nccc(-c4ccc(CNC(=O)c5noc(C(C)(C)C)n5)c(F)c4)c23)C1` (stereo not drawn) [Example 275, 5-tert-butyl-N-{[2-fluoro-4-(3-{[1-(prop-2-enoyl)pyrrolidin-3-yl]methyl}-1H-pyrazolo[3,4-b]pyridin-4-yl)phenyl]methyl}-1,2,4-oxadiazole-3-carboxamide], the IC50 stood at 338 nM at TEC, 158 nM at panel of kinases and 0.559 nM on Btk (setting [1]). Moreover, the TEC/Btk at TEC is given as 605.
As for `CC(C)(C)c1nc(NC(=O)Nc2ccc(-c3ccnc4[nH]nc(N[C@@H]5CCNC5)c34)cc2F)no1` [Example 155, 3-(5-tert-butyl-1,2,4-oxadiazol-3-yl)-1-[2-fluoro-4-(3-{[(3R)-pyrrolidin-3-yl]amino}-1H-pyrazolo[3,4-b]pyridin-4-yl)phenyl]urea], the half-maximal inhibitory concentration (IC50) on TEC, on panel of kinases and on Btk (setting [1]) was greater than 10000 nM throughout.
As to `C=CC(=O)N[C@@H]1CCN(c2n[nH]c3nccc(-c4ccc(CNC(=O)c5noc(C(C)(C)C)n5)c(F)c4)c23)C1` [Example 102, 5-tert-butyl-N-[(2-fluoro-4-{3-[(3R)-3-(prop-2-enamido)pyrrolidin-1-yl]-1H-pyrazolo[3,4-b]pyridin-4-yl}phenyl)methyl]-1,2,4-oxadiazole-3-carboxamide], the IC50 on TEC was 20 nM; at panel of kinases it was 33 nM; at Btk (setting [2]), less than 10 nM; at Btk (setting [1]), 0.0652 nM. In addition, at TEC, the TEC/Btk stood at 305.
For `C=CC(=O)N1CC[C@@H](Nc2n[nH]c3nccc(-c4ccc(C(C)(C)NC(=O)c5noc(C(C)(C)C)n5)cc4)c23)C1` [Example 134, 5-tert-butyl-N-{2-[4-(3-{[(3R)-1-(prop-2-enoyl)pyrrolidin-3-yl]amino}-1H-pyrazolo[3,4-b]pyridin-4-yl)phenyl]propan-2-yl}-1,2,4-oxadiazole-3-carboxamide] the same measures were 348 nM, 224 nM, less than 10 nM, 1.38 nM and 252.
Turning to `C=CC(=O)N1CC[C@@H](Nc2n[nH]c3nccc(-c4ccc(CNC(=O)c5ccc6c(c5)OCCO6)c(F)c4)c23)C1` [Example 374, N-{[2-fluoro-4-(3-{[(3R)-1-(prop-2-enoyl)pyrrolidin-3-yl]amino}-1H-pyrazolo[3,4-b]pyridin-4-yl)phenyl]methyl}-2,3-dihydro-1,4-benzodioxine-6-carboxamide], the results for the IC50 against TEC, on panel of kinases and on Btk (setting [1]) were 146 nM, 128 nM and 1.23 nM, respectively.
As for `CC(C)(C)c1nc(C(=O)NCc2ccc(-c3ccnc4[nH]nc(N[C@H]5CC[C@@H](N)CC5)c34)cc2F)no1` [Example 153, 5-tert-butyl-N-{[2-fluoro-4-(3-{[(1s,4s)-4-aminocyclohexyl]amino}-1H-pyrazolo[3,4-b]pyridin-4-yl)phenyl]methyl}-1,2,4-oxadiazole-3-carboxamide], the IC50 against TEC came out at 3200 nM; at panel of kinases, 2000 nM; on Btk (setting [1]) it was 18.9 nM. Further, the TEC/Btk at TEC stood at 169.
On to `CC#CC(=O)N1CC(Nc2n[nH]c3nccc(-c4ccc(CNC(=O)c5noc(C(C)(C)C)n5)c(F)c4)c23)C1` [Example 131, N-{[4-(3-{[1-(but-2-ynoyl)azetidin-3-yl]amino}-1H-pyrazolo[3,4-b]pyridin-4-yl)-2-fluorophenyl]methyl}-5-tert-butyl-1,2,4-oxadiazole-3-carboxamide], for which the IC50 is 106 nM at TEC, 152 nM at panel of kinases, less than 10 nM on Btk (setting [2]) and 0.201 nM on Btk (setting [1]). In addition, the TEC/Btk at TEC is given as 527.
Regarding `C[C@H]1CC[C@@H](Nc2n[nH]c3nccc(-c4ccc(CNC(=O)c5nc(C(C)(C)C)no5)c(F)c4)c23)CN1C(=O)C1(C)COC1` [Example 419, 3-tert-butyl-N-{[2-fluoro-4-(3-{[(3R,6S)-6-methyl-1-(3-methyloxetane-3-carbonyl)piperidin-3-yl]amino}-1H-pyrazolo[3,4-b]pyridin-4-yl)phenyl]methyl}-1,2,4-oxadiazole-5-carboxamide], the IC50 against TEC amounted to 1920 nM; on panel of kinases it was 4990 nM; on Btk (setting [1]) it was 1.87 nM.
